Experimental data published in patent US10132029B2, “Method for reducing adhesion of microorganisms to fabrics” (priority 2013, dated 2018).
Several values for one entry are separate records, joined by “and”; a condition that tells them apart may be missing. Identical values can stand only once. Like-named read-outs stand apart in the source and are kept apart here.

Assays:
Staphylococcus aureus [1] = type: cell-based; conditions: for Reduction in cell count relative to control [%] S. aureus: coated glass slide vs uncoated glass control K; for Cell count [1/cm^2] S. aureus: glass slide coated from 0.1% strength solution, bacterial suspension 10^9 microbes/ml, 30 measuring windows
Description: (§1) Silane derivatives S1, S3, S4 and S5 as identified above in example 1 were used to produce coatings on glass slides. As a control (comparison sample) K, an uncoated glass slide cleaned with isopropanol was used.
(§2) For the coating of the slides they were immersed for 60 seconds into a 0.1% strength solution of the corresponding silane derivative in ethanol/water as solvent with a water fraction of 5%. The solutions had been adjusted with acetic acid beforehand to a pH in the range from 4 to 5. The wetted slides were subsequently dried at 160° C. for 1 hour.
(§3) The slides wetted with the bacterial suspension were analyzed by microscope to determine the adhering bacteria. […] The fluorescent dye used was DAPI (4′,6-diamidine-2-phenylindole), which binds to DNA and fluoresces under UV excitation. In order to determine the adhesion characteristics, the cell counts per cm^2 were ascertained in 30 measuring windows, and the adhesion pattern was evaluated. Cell attachment was evaluated on an Olympus IX 51 using the Labflow AnalySIS image processing program.
(§4) Bacterial suspensions produced and used were suspensions of test cultures of the strains Staphylococcus aureus and Escherichia coli. The concentration of the bacterial suspension was 10^9 microbes/ml.

P. aeruginosa DSMZ 1117 = type: cell-based, Pseudomonas aeruginosa; conditions: for Reduction in adhered bacteria [%] P. aeruginosa: polyester fabric, application concentration 0.1 wt %, commercial product applied directly by padding, relative to uncoated fabric; for Reduction in adhered bacteria [%]: P. aeruginosa, polyester
Procedure: (§5) Circular fabric samples with a diameter of 0.6 cm were punched from coated and uncoated cotton and polyester fabrics. The fabric samples were fixed to a microtiter plate. The fabric samples were washed with acetone and sterilized with UV light for 60 minutes.
(§6) The strains were coated fresh from glycerol bacterial cultures onto tryptic soy agar (TSA). Incubation took place overnight at 33° C. The nutrient medium prepared was a tryptic soy broth (TSB), with 30% of the amount recommended by the manufacturer, supplemented with 0.25% of glucose. […] The nutrient medium was inoculated with the bacterial cultures and after inoculation was cultivated overnight at 37° C. and 160 rpm.
(§7) The resulting overnight cultures were centrifuged at 8500 g for 15 minutes and washed with 50 ml of isotonic saline solution (0.9 wt %). Bacterial suspensions in isotonic saline solutions were prepared. The optical density of the various bacterial suspensions was determined at 595 nm and adjusted to a level of about 1.2.
(§8) 50 μl of the final microorganism suspension in isotonic saline solution (0.9 wt %) prepared as described under 2.2 were added to the coated and uncoated fabric samples fixed on the microtiter plate (see 2.1). The microtiter plates were closed and sealed off with Parafilm. The microtiter plates were placed in an antievaporation box and incubated at 33° C. for 2 h and at 40 rpm. The expected colony-forming unit count (CFU) of the inoculum at the start was 10^6-10^7 CFU/ml.
After the biofilm had formed, the planctonic cells were removed and used as a sample for determining the optical density at 595 nm. For this purpose, the samples were made up to a volume of 150 μl, and 100 μl were withdrawn for the optical density determination in a photometer. […] Through the determination of the planctonic cells after the formation of biofilm, the amount of bacteria available for adhesion was monitored.
(§9) The fabric samples and the resulting biofilm were washed three times with 200 to 300 μl of isotonic saline solution.
(§10) The fabric samples obtained under 2.4 (after formation of biofilm) were placed together with 100 μl of isotonic saline solution into wells of a 96-well microtiter plate.
(§11) Investigations into the removal of the adhered microorganisms from the fabric surfaces were carried out with vortexing, ultrasound, with enzymatic treatment, or with combinations thereof. Treatment in the vortex amounted to 5 minutes and was performed horizontally. The ultrasound treatment was carried out in an ultrasound bath for 5 minutes. For the enzymatic removal, the fabric samples were treated with enzymes, such as trypsin or a mixture of different enzymes, for example, during incubation at 37° C. for 1 hour.
(§12) Following removal of the adhered bacteria, the fabric samples were removed from the microtiter plates.
(§13) The number of removed bacteria in the resulting suspension was determined by staining with Syto9 and fluorescence measurement (fluorescence filter with excitation at 485/20 nm and emission at 528/20 nm) or by staining with BacTiterGlo and bioluminescence measurement. Furthermore, it is possible to determine the number of adhered and removed microorganisms by means of protein assay (e.g., BCA assay, Bradford Assay) or optical density proliferation assay.
The relative variables (e.g., fluorescence units (RFU)) concerning the coated and uncoated fabrics were compared, allowing the reduction in adhered bacteria in % to be determined in accordance with the following formula: Reduction in adhered bacteria[%]=[(RFUuc−RFUuc)/RFUuc]*100 where • RFUuc=relative fluorescence units of the removed bacteria of the uncoated substrate • RFUc=relative fluorescence units of the removed bacteria of the coated substrate
The commercial products described in example 1 were applied directly by a padding method to polyester fabric samples.
Bacterial adhesion to the polyester fabric samples was investigated using the microtiter plate Syto9 assay, as described in example 2.

S. aureus DSMZ 20231 = assay: Syto9 microtiter plate assay: adhesion of bacteria to coated polyester fabric samples; type: cell-based, Staphylococcus aureus; conditions: for Reduction in adhered bacteria [%] S. aureus: polyester fabric, application concentration 0.1 wt %, commercial product applied directly by padding, relative to uncoated fabric; for Reduction in adhered bacteria [%]: S. aureus, polyester
Procedure: as §5, §6, §7, §8
After the biofilm had formed, the planctonic cells were removed and used as a sample for determining the optical density at 595 nm. For this purpose, the samples were made up to a volume of 150 μl, and 100 μl were withdrawn for the optical density determination in a photometer. The optical density of the corresponding control solution with sterile isotonic saline solution was subtracted from the optical densities found. Through the determination of the planctonic cells after the formation of biofilm, the amount of bacteria available for adhesion was monitored.
as §9, §10, §11, §12, §13
The relative variables (e.g., fluorescence units (RFU)) concerning the coated and uncoated fabrics were compared, allowing the reduction in adhered bacteria in % to be determined in accordance with the following formula: Reduction in adhered bacteria[%]=[(RFUuc−RFUuc)/RFUuc]*100 where • RFUuc=relative fluorescence units of the removed bacteria of the uncoated substrate • RFUc=relative fluorescence units of the removed bacteria of the coated substrate […]

Escherichia coli = assay: Bacterial adhesion to coated glass slides via fluorescence microscopy (DAPI); type: cell-based; conditions: for Reduction in cell count relative to control [%] E. coli: coated glass slide vs uncoated glass control K; for Cell count [1/cm^2] E. coli: glass slide coated from 0.1% strength solution, bacterial suspension 10^9 microbes/ml, 30 measuring windows
Description: as §1, §2, §3, §4

Staphylococcus aureus [2] = assay: Antimicrobial activity of coated polyester fabric samples as per JIS L 1902; type: cell-based; conditions: for Antimicrobial activity[log] Unwashed: 18 hours at 37° C.
Procedure: The procedure here is that the fabric sample was inoculated with a defined amount of a microbial suspension (inoculum). Test specimens with a weight of approximately 0.4 g were investigated in a triplicate determination.
The inoculated fabric sample was incubated in a closed system at 37° C. over a period of 18 hours. Following incubation, the bacteria of a defined amount of a dilution solution were recorded. The difference in the bacterial count of the fabric sample at 0 hours in comparison to the fabric sample after 18 hours served as a basis for evaluation. The antimicrobial activity is reported as a logarithmic or percentage value. Here, a reduction in the microbe count of 0% corresponds to inadequate antimicrobial action, a microbe reduction in the range from 0.1 to less than 90% to an inadequate antibacterial action, and a microbe reduction of greater than 90% to a good antibacterial action.

[3] = coating concentration 0.001 % based on fabric
[4] = coating concentration 0.01 % based on fabric
[5] = coating concentration 0.1 % based on fabric
[6] = coating concentration 0.001 %, wash pretreatment (A) unwashed
[7] = coating concentration 0.001 %, wash pretreatment (B) washed twice at 30° C. only with water
[8] = coating concentration 0.01 %, wash pretreatment (A) unwashed
[9] = coating concentration 0.01 %, wash pretreatment (B) washed twice at 30° C. only with water
[10] = coating concentration 0.01 %, wash pretreatment (C) washed once at 30° C. EN ISO 6330 method 8A with ECE B detergent
[11] = coating concentration 0.1 %, wash pretreatment (A) unwashed
[12] = coating concentration 0.1 %, wash pretreatment (B) washed twice at 30° C. only with water
[13] = coating concentration 0.1 %, wash pretreatment (C) washed once at 30° C. EN ISO 6330 method 8A with ECE B detergent

For `CCO[Si](CCCNC(=O)[C@H](O)[C@@H](O)[C@H](O)[C@H](O)CO)(OCC)OCC` [S4, N-(triethoxysilylpropyl)gluconamide], the “adhesion pattern on microscopic inspection” value (Staphylococcus aureus [1]; S. aureus on coated glass surface) was “only a few grapelike assemblies of S. aureus”, the “Reduction in cell count relative to control [%] S. aureus” value (Staphylococcus aureus [1]) was 16% and 17% and the “Cell count [1/cm^2] S. aureus” value (Staphylococcus aureus [1]) was 383 000 1/cm^2. For the same compound, the “Reduction in adhered bacteria [%] P. aeruginosa” value (“Reduction … [%] P. aeruginosa” below) (P. aeruginosa DSMZ 1117) was 57%, the “Reduction in adhered bacteria [%] S. aureus” value (S. aureus DSMZ 20231) was 58% and the “Reduction in cell count relative to control [%] E. coli” value (Escherichia coli) was 51%. For the same compound, the “Cell count [1/cm^2] E. coli” value (Escherichia coli) was 389 000 1/cm^2.

With “bis[3-(triethoxysilylpropoxy)-2-hydroxypropoxy)]polyethylene oxide (5-10 EO units) [S2]” the “Antimicrobial activity[log] Unwashed” value (Staphylococcus aureus [2]; [3]) was 0.2 log, the “Antimicrobial activity[log] Washed once at 30° C., without detergent” value (Staphylococcus aureus [2]; [3]) was −0.1 log and the “Antimicrobial activity[log] Washed twice with water” value (Staphylococcus aureus [2]; [3]) was 0.1 log. The “Antimicrobial activity[log] Unwashed” value (Staphylococcus aureus [2]; [4]) was −0.4 log, the “Antimicrobial activity[log] Washed once at 30° C., without detergent” value (Staphylococcus aureus [2]; [4]) was −0.6 log and the “Antimicrobial activity[log] Washed twice with water” value (Staphylococcus aureus [2]; [4]) was 0.1 log. The “Antimicrobial activity[log] Unwashed” value (Staphylococcus aureus [2]; [5]) was −0.2 log, the “Antimicrobial activity[log] Washed once at 30° C., without detergent” value (Staphylococcus aureus [2]; [5]) was −0.4 log and the “Antimicrobial activity[log] Washed twice with water” value (Staphylococcus aureus [2]; [5]) was 0.00 log. For the same compound, the “Reduction in adhered bacteria [%]” value (P. aeruginosa DSMZ 1117; [6]) was 62%, the “Reduction in adhered bacteria [%]” value (P. aeruginosa DSMZ 1117; [7]) was 87% and the “Reduction in adhered bacteria [%]” value (P. aeruginosa DSMZ 1117; coating concentration 0.001 %, wash pretreatment (C) washed once at 30° C. EN ISO 6330 method 8A with ECE B detergent) was 55%. For the same compound, the “Reduction in adhered bacteria [%]” value (P. aeruginosa DSMZ 1117; [8]) was 79%, the “Reduction in adhered bacteria [%]” value (P. aeruginosa DSMZ 1117; [9]) was 36% and the “Reduction in adhered bacteria [%]” value (P. aeruginosa DSMZ 1117; [10]) was 75%. The “Reduction in adhered bacteria [%]” value (P. aeruginosa DSMZ 1117; [11]) was 68%, the “Reduction in adhered bacteria [%]” value (P. aeruginosa DSMZ 1117; [12]) was 45% and the “Reduction in adhered bacteria [%]” value (P. aeruginosa DSMZ 1117; [13]) was 75%. The “Reduction … [%] P. aeruginosa” value (P. aeruginosa DSMZ 1117) was 64%, the “Reduction in adhered bacteria [%]” value (S. aureus DSMZ 20231; [6]) was 30% and the “Reduction in adhered bacteria [%]” value (S. aureus DSMZ 20231; [7]) was 52%. For the same compound, the “Reduction in adhered bacteria [%]” value (S. aureus DSMZ 20231; [8]) was 71%, the “Reduction in adhered bacteria [%]” value (S. aureus DSMZ 20231; [9]) was 31% and the “Reduction in adhered bacteria [%]” value (S. aureus DSMZ 20231; [10]) was 66%. The “Reduction in adhered bacteria [%]” value (S. aureus DSMZ 20231; [11]) was 55%, the “Reduction in adhered bacteria [%]” value (S. aureus DSMZ 20231; [12]) was 48% and the “Reduction in adhered bacteria [%]” value (S. aureus DSMZ 20231; [13]) was 49%. The “Reduction in adhered bacteria [%] S. aureus” value (S. aureus DSMZ 20231) was 85%.

With “methoxy(polyethyleneoxy)propyltrimethoxysilane (9-12 EO units) [S1]” the “Reduction in cell count relative to control [%] S. aureus” value (Staphylococcus aureus [1]) was 76%, the “adhesion of S. aureus to coated glass, assessment in words” value (Staphylococcus aureus [1]; coated glass slides) was “Very good results” and the “Cell count [1/cm^2] S. aureus” value (Staphylococcus aureus [1]) was 110 000 1/cm^2. The “Reduction … [%] P. aeruginosa” value (P. aeruginosa DSMZ 1117) was 41%, the “Reduction in adhered bacteria [%] S. aureus” value (S. aureus DSMZ 20231) was 34% and the “adhesion of bacteria to coated glass, assessment in words” value (Escherichia coli; both series of tests (S. aureus and E. coli), compared with glass control) was “very good results”. For the same compound, the “Reduction in cell count relative to control [%] E. coli” value (Escherichia coli) was 63% and the “Cell count [1/cm^2] E. coli” value (Escherichia coli) was 296 000 1/cm^2.
